Measured values reported in patent US11690814B2, “Suplatast tosilate for use in the treatment of cough associated with interstitial lung disease” (Conrig Pharma ApS, priority 2016, dated 2023).
Entries after “also recorded” stand apart in the source; their conditions may differ. Where two headings read alike, the source gives them in different places.

Columns and labels:
[1] = system: patients receiving the drug; conditions: cited from earlier work
[2] = system: bleomycin-treated guinea pigs (capsaicin inhalation-induced cough); assay: 30 uM capsaicin cough challenge on bleomycin-treated animals (pre-clinical model of pulmonary fibrosis); assay type: in vivo, guinea pig; conditions: for inhibition at 30 mg/kg: Cavia porcellus, ip; for mean cough, 10 min exposure: bleomycin-treated (14 days after 8 U/kg intratracheal), 30 mg/kg i.p. 30 min before 30 uM capsaicin, vehicle 52.9; for mean cough, 10 min exposure / mean cough, 5 min observation / mean cough, 10 + 5 min: n=14-16; for antitussive effect (conclusion in words): bleomycin-treated animals, capsaicin challenge; for mean cough, 5 min observation: 5 min post-exposure period, vehicle 22.4; for mean cough, 10 + 5 min: vehicle 75.3
Experimental: (§1) The study was conducted as described in example 2, with the following exceptions. The bleomycin-induced cough modes is described J. A. Fernandez-Blanco et al: Clinical Science (2015) 129, 1001-1010).
(§2) The objective of the present study was to evaluate the potential anti-tussive effect of suplatast tosilate on capsaicin inhalation-induced cough on naïve and bleomycin-treated guinea pigs.
(§3) Male guinea pigs 300-350 g bodyweight (Harlan MD, distributed by INNOVO Ltd., Hungary) were used. The animals were housed in individually ventilated cabinets in a temperature-controlled and ventilated environment (21-23° C.) with a 12-hour light-dark cycle. Water and standard ascorbic acid containing guinea pig chow were provided ad libitum. The protocol has been approved by the Hungarian Food Chain Safety and Animal Health Directorate (PEI/001/3083-6/2014) and was carried out in accordance with European Directive 86/609/EEC.
(§4) Suplatast tosilate (racemate) and reference compound codeine were dissolved in saline ([…]) at 15 mg/mL concentration. Suplatast tosilate was administered intraperitoneally at 30 mg/kg dose (2 ml/kg b.d.w. volume from the […] solution) 30 min before capsaicin challenge. Codeine is a known cough suppressant.
(§5) Three experimental groups were involved in this study: Vehicle, suplatast tosilate and codeine treated groups. Each group contained n=16 guinea pigs. Altogether, 48 guinea pigs were used for this study.
(§6) On day 0 the naïve animals were treated i.p. either with codeine or suplatast tosilate. 30 min later the cough challenge was applied. 14 days later the animals were anaesthetized by ketamin/xilazine/acepromazine 10/2/0.1 mg/kg at 1 mL/kg i.m. The trachea was prepared and 8 U/kg bodyweight (1 mL/kg volume in sterile saline) bleomycin was injected slowly into the trachea. The wound was closed by sutures. 14 days after bleomycin injection the animals were treated with the test molecules and exposed to capsaicin spray again.
(§7) The capsaicin cough-challenge protocol was applied both on day 0 naïve animals and on day 28 on bleomycin treated animals. The guinea pigs were exposed to 30 μM capsaicin spray 30 min after the test item administration. The 30 μM capsaicin spray was generated by a compressed air nebulizer (DeVilbiss Pulmoaid) connected to a transparent chamber (6.7 l volume). Compressed air with a flow of 0.16 l/s and pressure of 0.5 bar produced the spray. The capsaicin vapour penetrated into the chamber through a short tube driven by constant air flow. The animals were put into a transparent chamber individually and exposed to the capsaicin (30 μM capsaicin was diluted by water from 10^-2 M alcoholic capsaicin stock solution) aerosol for 10 minutes. The number of coughs during the 10 min inhalation period and the subsequent 5 min was counted. The coughing of the animals was defined as a strong contraction of abdomen which was followed by forced expiration through the opened mouth of the animals. Two trained technicians monitored in parallel the exposed animals and counted the cough numbers independently from each-others.
(§8) The cough numbers in each group were expressed as median and inter quartile range on the figures and mean±SD on tables. The percentage antitussive effect was also calculated.

[3] = system: naive guinea pigs (capsaicin inhalation-induced cough); assay: 30 uM capsaicin cough challenge on naive animals; assay type: in vivo, guinea pig; conditions: for inhibition at 30 mg/kg: Cavia porcellus, ip; for mean cough, 10 min exposure: 30 mg/kg i.p. 30 min before 30 uM capsaicin, vehicle 9.3; for mean cough, 10 min exposure / mean cough, 5 min observation / mean cough, 10 + 5 min: n=16; for mean cough, 5 min observation: 5 min post-exposure period, vehicle 2.4; for mean cough, 10 + 5 min: vehicle 11.7; for antitussive effect (conclusion in words): capsaicin challenge
Experimental: as §1, §2, §3, §4, §5, §6, §7, §8

[4] = Solubility in dosing vehicle; assay type: physicochemical; conditions: 10% PEG400/saline mixture; 30 mg/mL dosing solution
Experimental: The vehicle for suplatast tosilate was 10% PEG400/saline mixture. Suplatast tosilate was well soluble in this mixture. ST was administered intraperitoneally at 30 mg/kg dose (1 ml/kg b.d.w. volume from the 30 mg/mL solution/suspension) 30 min before citric acid challenge. 6 guinea pigs were included in the vehicle group and in the ST group.
The vehicle for suplatast tosilate (ST) is 10% PEG400/saline mixture. ST is well soluble in this mixture. ST is administered intraperitoneally at 30 mg/kg dose (1 ml/kg b.d.w. volume from the 30 mg/mL solution/suspension) 30 min before citric acid challenge. 6 guinea pigs were included in the vehicle and in the ST groups.

[5] = system: patients with non-atopic asthma or chronic bronchitis; conditions: cited from earlier work
[6] = system: guinea pigs (enalapril plus citric acid induced cough); conditions: Zhou et al 2015; cited from earlier work
[7] = system: refractory chronic dry cough following lung cancer surgery; conditions: cited from earlier work
[8] = system: guinea-pigs (airway cough hypersensitivity, allergic eosinophilic inflammation); conditions: cited from earlier work
[9] = system: guinea pigs (enalapril plus citric acid induced cough); assay: Cough induced by enalapril plus citric acid in guinea pigs; assay type: in vivo, guinea pig; conditions: 30 mg/kg i.p. 30 min before 10% citric acid spray; enalapril 1.3 mg/kg s.c.; whole 8-min observation; mean±S.E.M.; n=6; vehicle 11.2±2.6
Experimental: as §3, with “The method is described in detail by Zhou et al: Pharmacology. 2015; 95(1-2): 36-41. In brief: Male” for “Male”, “open cages” for “individually ventilated cabinets”
The enalapril maleate was dissolved in sterile saline (Salsol infusion, Teva) at 1.3 mg/mL concentration and was applied subcutaneously at 1.3 mg/kg dose (1 mL/kg b.d.w. volume from the 1.3 mg/mL solution) 30 min before vehicle, suplatast tosilate or administration. […]
The guinea pigs were exposed to 10% citric acid spray 30 min after the test item administration. […] The number of coughs during the 3 min inhalation period and the subsequent 5 min was counted. […] The sound of the cough was monitored by a microphone connected to a loudspeaker placed into the cough chamber. A trained technician monitored the exposed animals and counted the cough numbers.
The average cough numbers in each group was expressed as mean±S.E.M. The percentage antitussive effect was also calculated.

[10] = system: patients with Cough Variant Asthma; conditions: cited from earlier work
Atopic cough = conditions: after four weeks of treatment; cited from earlier work
[11] = system: Idiopathic Pulmonary Fibrosis (IPF); conditions: cited from earlier work
[12] = 5 min, read-out: Percentage inhibition (antitussive effect), 5 min observation
[13] = 10 min, read-out: Percentage inhibition (antitussive effect), 10 min exposure
[14] = read-out: Percentage inhibition (antitussive effect), 10 + 5 min
[15] = bleomycin-treated, 30 mg/kg i.p.
[16] = bleomycin-treated, 30 mg/kg i.p., whole 15-min observation
[17] = naive animals, 30 mg/kg i.p., whole 15-min observation

## O=C1CN(/N=C/c2ccc([N+](=O)[O-])o2)C(=O)N1 [nitrofurantoin]
[1]
  patients who get pulmonary fibrosis: 0.01%

## COc1ccc2c3c1O[C@H]1[C@@H](O)C=C[C@H]4[C@@H](C2)N(C)CC[C@@]341 [Codeine, codeine]
[2]; [12]
  inhibition at 30 mg/kg: 76.2%
[2]; [13]
  inhibition at 30 mg/kg: 72.9%
[2]; [14]
  inhibition at 30 mg/kg: 73.9%
[2]
  mean cough, 10 min exposure: 14.3
[2]; 30 mg/kg i.p.
  antitussive effect (conclusion in words): showed antitussive effect
[2]; [15]
  mean cough, 5 min observation: 5.3
[2]; [16]
  mean cough, 10 + 5 min: 19.7
[3]; [12]
  inhibition at 30 mg/kg: 97.4%
[3]; [13]
  inhibition at 30 mg/kg: 43.9%
[3]; [14]
  inhibition at 30 mg/kg: 55%
[3]; naive animals
  mean cough, 10 min exposure: 5.2
[3]; naive animals, 30 mg/kg i.p.
  mean cough, 5 min observation: 0.1
  antitussive effect (conclusion in words): showed antitussive effect
[3]; [17]
  mean cough, 10 + 5 min: 5.3

## CCOCC(O)COc1ccc(NC(=O)CC[S+](C)C)cc1.Cc1ccc(S(=O)(=O)[O-])cc1 (racemic) [Suplatast tosilate, (±)-3-{[4-(3-ethoxy-2-hydroxypropoxy)phenyl]amino}-3-oxopropyl)(dimethyl)sulfonium; 4-methylbenzenesulfonate]
[4]
  solubility in vehicle: well soluble
[5]
  effect on cough reflex sensitivity: does not change the cough reflex sensitivity
[6]
  effect on citric acid+enalapril induced cough: reduce citric acid+enalapril induced cough
[7]
  effect on refractory chronic dry cough: benefit refractory chronic dry cough
[2]; 5 min, bleomycin-treated, 30 mg/kg i.p., post-exposure period, versus vehicle, read-out: Percentage inhibition (antitussive effect), 5 min observation
  inhibition at 30 mg/kg: 77.7%
[2]; 10 min, bleomycin-treated, 30 mg/kg i.p., versus vehicle, read-out: Percentage inhibition (antitussive effect), 10 min exposure
  inhibition at 30 mg/kg: 42.8%
[2]; bleomycin-treated, 30 mg/kg i.p., whole 15-min observation, versus vehicle, read-out: Percentage inhibition (antitussive effect), 10 + 5 min
  inhibition at 30 mg/kg: 53.2%
[2]
  mean cough, 10 min exposure: 30.3
[2]; 30 mg/kg i.p.
  antitussive effect (conclusion in words): relevant and statistically significant antitussive effect
[2]; [15]
  mean cough, 5 min observation: 5
[2]; [16]
  mean cough, 10 + 5 min: 35.3
[3]; 5 min, naive animals, 30 mg/kg i.p., post-exposure period, versus vehicle, read-out: Percentage inhibition (antitussive effect), 5 min observation
  inhibition at 30 mg/kg: -51.9%
[3]; 10 min, naive animals, 30 mg/kg i.p., versus vehicle, read-out: Percentage inhibition (antitussive effect), 10 min exposure
  inhibition at 30 mg/kg: -5.4%
[3]; naive animals, 30 mg/kg i.p., whole 15-min observation, versus vehicle, read-out: Percentage inhibition (antitussive effect), 10 + 5 min
  inhibition at 30 mg/kg: -15%
[3]; naive animals
  mean cough, 10 min exposure: 9.8
[3]; naive animals, 30 mg/kg i.p.
  mean cough, 5 min observation: 3.7
  antitussive effect (conclusion in words): did not show antitussive effect
[3]; naive animals, 30 mg/kg i.p., post-exposure period, versus vehicle, 30 mg/kg
  Percentage inhibition (antitussive effect), 5 min observation: did not show antitussive effect
[3]; naive animals, 30 mg/kg i.p., versus vehicle, 30 mg/kg
  Percentage inhibition (antitussive effect), 10 min exposure: did not show antitussive effect
[3]; [17]
  mean cough, 10 + 5 min: 13.4
[8]; acute administration, airway allergy guinea-pig model
  acute effect on capsaicin induced cough: does not acutely reduce capsaicin induced cough
[8]; sub-chronic administration, allergic eosinophilic inflammation, listed as ST
  effect on airway cough hypersensitivity: reduce airway cough hypersensitivity; also recorded: inhibiting airway cough hypersensitivity
[9]
  cough number: 7.2±2.8
[10]
  effect on cough in capsaicin challenge: improving cough
Atopic cough
  effect on cough threshold: decreasing cough threshold

## COC(=O)c1ccc2c(c1)NC(=O)/C2=C(\Nc1ccc(N(C)C(=O)CN2CCN(C)CC2)cc1)c1ccccc1 [Ofev (nintedanib), nintedanib]
[11]
  effect on decline of lung function: slow the decline of lung function
  effect on mortality and lung function: has not been shown to reduce mortality or improve lung function

## CCCCc1oc2ccccc2c1C(=O)c1cc(I)c(OCCN(CC)CC)c(I)c1 [amiodarone]
[1]
  patients who get pulmonary fibrosis: up to 40%
